The source of these data is patent US20250011368A1, “DLL3 TARGETING PEPTIDES AND CONSTRUCTS THEREOF” (MARIANA ONCOLOGY INC., priority 2023, published 2025).

In the test the target is T1, human DLL3 (Homo sapiens, UniProt Q9NYJ7).
T1 sequence (Q9NYJ7 27-618): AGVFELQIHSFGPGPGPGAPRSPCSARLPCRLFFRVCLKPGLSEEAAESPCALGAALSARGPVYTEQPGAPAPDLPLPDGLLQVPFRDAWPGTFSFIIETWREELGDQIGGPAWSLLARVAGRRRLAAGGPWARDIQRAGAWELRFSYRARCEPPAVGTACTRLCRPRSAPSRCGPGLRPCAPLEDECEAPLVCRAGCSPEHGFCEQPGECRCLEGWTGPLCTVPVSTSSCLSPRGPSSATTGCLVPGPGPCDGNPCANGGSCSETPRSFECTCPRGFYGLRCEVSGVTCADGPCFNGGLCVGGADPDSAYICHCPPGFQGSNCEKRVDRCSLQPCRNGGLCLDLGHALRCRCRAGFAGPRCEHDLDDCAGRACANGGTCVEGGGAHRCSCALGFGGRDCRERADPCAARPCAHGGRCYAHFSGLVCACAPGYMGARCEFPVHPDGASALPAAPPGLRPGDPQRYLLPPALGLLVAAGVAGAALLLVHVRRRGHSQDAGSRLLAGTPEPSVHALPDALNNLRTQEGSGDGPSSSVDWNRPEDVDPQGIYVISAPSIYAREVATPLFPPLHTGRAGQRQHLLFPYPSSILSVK
Briefly: Affinity determination by Surface Plasmon Resonance (SPR). It is filed as binding. As to conditions: 25° C., biotinylated human DLL3 immobilized on streptavidin sensor chip, 1:1 binding model; read-out: SPR KD. The gist of the method: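 Kinetic and affinity constants were derived by fitting sensorgrams to a 1:1 binding model. Graded compound concentrations flowed at 100 μL/minute in 20 mM phosphate running buffer with 2% DMSO over streptavidin-immobilized biotinylated human DLL3, reference-subtracted.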

The structures appear in SMILES notation. Numbered stars: 1 amine (or outer) side, 2 acyl side, 3 side chain; on linkers, the order of the positions; unused ones are H or OH. Bridge positions count the residues as written; N and C are the ends. Square brackets hold non-standard residues; d marks the D form. Side chains are listed from the residue outwards. Peptide text beside a SMILES is read from it. * marks the point of attachment. ξ: configuration not given here. DOTA = O=C(O)CN1CCN(CC(=O)O)CCN(CC(=O)*)CCN(CC(=O)O)CC1; Trp(5-F) = N[C@@H](Cc1c[nH]c2ccc(F)cc12)C(=O)O; Trp(7-aza) = N[C@@H](Cc1c[nH]c2ncccc12)C(=O)O; Pro(trans-4-F) = O=C(O)[C@@H]1C[C@@H](F)CN1; 2Nal = N[C@@H](Cc1ccc2ccccc2c1)C(=O)O; pXylylene = c1cc(C[*:2])ccc1C[*:1]; ξW = NC(Cc1c[nH]c2ccccc12)C(=O)O; Thr(3ξ) = CC(O)[C@H](N)C(=O)O; Cba = N[C@@H](CC1CCC1)C(=O)O; Chg = N[C@H](C(=O)O)C1CCCCC1; PEG4 = NCCOCCOCCOCCOCCC(=O)O; Tle = CC(C)(C)[C@H](N)C(=O)O Some results are limits rather than exact numbers.

In general, Kd refers to a measure of binding affinity in units of concentration. As to `CC[C@H](C)[C@H](NC(=O)[C@@H](NC(=O)[C@H](Cc1c[nH]c2ccccc12)NC(C)=O)[C@@H](C)O)C(=O)N[C@H]1CSCc2ccc(cc2)CSC[C@@H](C(=O)N[C@@H](Cc2c[nH]c3ccccc23)C(=O)N2CCC[C@H]2C(=O)N[C@H](CCCCNC(=O)CN2CCN(CC(=O)O)CCN(CC(=O)O)CCN(CC(=O)O)CC2)C(N)=O)NC(=O)[C@H](CC(=O)O)NC(=O)[C@H](Cc2cnc[nH]2)NC(=O)[C@H](Cc2ccc3ccccc3c2)NC(=O)[C@H](CC(N)=O)NC(=O)[C@H](CC(N)=O)NC1=O` [compound 256, Ac-W-T-I-C(3)(pDBX)-N-N-(2Nal)-H-D-C(2)-W-P-[D-Lys(DOTA)]-NH2] (Ac-WTICNN[2Nal]HDCWP[dK](DOTA)-NH2; linker 4-10 via pXylylene), the Kd was in the range of 1 to 10 nM.
As to `CC(=O)N[C@@H](Cc1c[nH]c2ccc(F)cc12)C(=O)N[C@H](C(=O)N[C@H](C(=O)N[C@H]1CSSC[C@@H](C(=O)N[C@@H](Cc2c[nH]c3ncccc23)C(=O)N2C[C@H](F)C[C@H]2C(=O)N[C@H](CCCCNC(=O)CN2CCN(CC(=O)O)CCN(CC(=O)O)CCN(CC(=O)O)CC2)C(N)=O)NC(=O)[C@H](CC(=O)O)NC(=O)[C@H](Cc2cnc[nH]2)NC(=O)[C@H](Cc2ccc3ccccc3c2)NC(=O)[C@H](CC(N)=O)NC(=O)[C@H](CC(N)=O)NC1=O)C(C)(C)C)[C@@H](C)O` [compound 257, Ac-(5Fluoro-W)-T-(Tbg)-C(3)-N-N-(2Nal)-H-D-C(3)-(7Aza-W)-(trans4Fluoro-P)-[D-Lys(DOTA)]-NH2] (Ac-[Trp(5-F)]T[Tle]CNN[2Nal]HDC[Trp(7-aza)][Pro(trans-4-F)][dK](DOTA)-NH2; disulfide 4-10), the Kd was below 1 nM.
In the case of `CC(=O)N[C@@H](Cc1c[nH]c2ccc(F)cc12)C(=O)N[C@H](C(=O)N[C@H](C(=O)N[C@H]1CSSC[C@@H](C(=O)N[C@@H](Cc2c[nH]c3ncccc23)C(=O)N2C[C@H](F)C[C@H]2C(=O)N[C@H](CCCCNC(=O)CN2CCN(CC(=O)O)CCN(CC(=O)O)CCN(CC(=O)O)CC2)C(N)=O)NC(=O)[C@H](CC(=O)O)NC(=O)[C@H](Cc2cnc[nH]2)NC(=O)[C@H](Cc2ccc3ccccc3c2)NC(=O)[C@H](CC(N)=O)NC(=O)[C@H](CC(N)=O)NC1=O)C1CCCCC1)[C@@H](C)O` [compound 258, Ac-(5Fluoro-W)-T-(Chg)-C(3)-N-N-(2Nal)-H-D-C(3)-(7Aza-W)-(trans4Fluoro-P)-[D-Lys(DOTA)]-NH2] (Ac-[Trp(5-F)]T[Chg]CNN[2Nal]HDC[Trp(7-aza)][Pro(trans-4-F)][dK](DOTA)-NH2; disulfide 4-10) it was below 1 nM.
As for `CC[C@H](C)[C@H](NC(=O)[C@@H](NC(=O)[C@H](Cc1c[nH]c2ccccc12)NC(C)=O)[C@@H](C)O)C(=O)N[C@H]1CSSC[C@@H](C(=O)N[C@@H](Cc2c[nH]c3ccccc23)C(=O)N2CCC[C@H]2C(=O)N[C@H](CCCCNC(=O)CN2CCN(CC(=O)O)CCN(CC(=O)O)CCN(CC(=O)O)CC2)C(=O)O)NC(=O)[C@H](CC(=O)O)NC(=O)[C@H](Cc2cnc[nH]2)NC(=O)[C@H](Cc2ccc3ccccc3c2)NC(=O)[C@H](CC(N)=O)NC(=O)[C@H](CC(N)=O)NC1=O` [compound 262, Ac-W-T-I-C(3)-N-N-(2Nal)-H-D-C(3)-W-P-[D-Lys(DOTA)]-OH] (Ac-WTICNN[2Nal]HDCWP[dK](DOTA)-OH; disulfide 4-10), the Kd was below 1 nM.
Take `CC(=O)N[C@@H](Cc1c[nH]c2ccc(F)cc12)C(=O)N[C@H](C(=O)N[C@@H](CC1CCC1)C(=O)N[C@H]1CSSC[C@@H](C(=O)N[C@@H](Cc2c[nH]c3ncccc23)C(=O)N2C[C@H](F)C[C@H]2C(=O)N[C@@H](CCCCNC(=O)CN2CCN(CC(=O)O)CCN(CC(=O)O)CCN(CC(=O)O)CC2)C(N)=O)NC(=O)[C@H](CC(=O)O)NC(=O)[C@H](Cc2cnc[nH]2)NC(=O)[C@H](Cc2ccc3ccccc3c2)NC(=O)[C@H](CC(N)=O)NC(=O)[C@H](CC(N)=O)NC1=O)[C@@H](C)O` [compound 269, Ac-(5Fluoro-W)-T-(CBA)-C(3)-N-N-(2Nal)-H-D-C(3)-(7Aza-W)-(trans4Fluoro-P)-[D-Lys(DOTA)]-NH2] (Ac-[Trp(5-F)]T[Cba]CNN[2Nal]HDC[Trp(7-aza)][Pro(trans-4-F)]K(DOTA)-NH2; disulfide 4-10): the Kd is below 1 nM.
In the case of `CC[C@H](C)[C@H](NC(=O)[C@@H](NC(=O)C(Cc1c[nH]c2ccccc12)NC(C)=O)C(C)O)C(=O)N[C@H]1CSSC[C@@H](C(=O)N[C@@H](Cc2c[nH]c3ccccc23)C(=O)N2CCC[C@H]2C(=O)NCCOCCOCCOCCOCCC(=O)N[C@H](CCCCNC(=O)CN2CCN(CC(=O)O)CCN(CC(=O)O)CCN(CC(=O)O)CC2)C(N)=O)NC(=O)[C@H](CC(=O)O)NC(=O)[C@H](Cc2cnc[nH]2)NC(=O)[C@H](Cc2ccc3ccccc3c2)NC(=O)[C@H](CC(N)=O)NC(=O)[C@H](CC(N)=O)NC1=O` (stereo partly drawn) [compound 270, Ac-W-T-I-C(3)-N-N-(2Nal)-H-D-C(3)-W-P-PEG4-[D-Lys(DOTA)]-NH2] (Ac-[ξW][Thr(3ξ)]ICNN[2Nal]HDCWP[PEG4][dK](DOTA)-NH2; disulfide 4-10) it was below 1 nM; in that of `CC[C@H](C)[C@H](NC(=O)[C@@H](NC(=O)C(Cc1c[nH]c2ccccc12)NC(C)=O)C(C)O)C(=O)N[C@H]1CSSC[C@@H](C(=O)N[C@@H](Cc2c[nH]c3ccccc23)C(=O)N2CCC[C@H]2C(=O)N[C@H](CCCCNC(=O)CCOCCOCCOCCOCCNC(=O)CN2CCN(CC(=O)O)CCN(CC(=O)O)CCN(CC(=O)O)CC2)C(N)=O)NC(=O)[C@H](CC(=O)O)NC(=O)[C@H](Cc2cnc[nH]2)NC(=O)[C@H](Cc2ccc3ccccc3c2)NC(=O)[C@H](CC(N)=O)NC(=O)[C@H](CC(N)=O)NC1=O` (stereo partly drawn) [compound 271, Ac-W-T-I-C(3)-N-N-(2Nal)-H-D-C(3)-W-P-[D-Lys(PEG4-DOTA)]-NH2] (Ac-[ξW][Thr(3ξ)]ICNN[2Nal]HDCWP[dK]([PEG4-DOTA])-NH2; disulfide 4-10), below 1 nM; in that of `CC[C@H](C)[C@H](NC(=O)[C@@H](NC(=O)[C@H](Cc1c[nH]c2ccccc12)NC(C)=O)[C@@H](C)O)C(=O)N[C@H]1CSSC[C@@H](C(=O)N[C@@H](Cc2c[nH]c3ccccc23)C(=O)N2CCC[C@H]2C(=O)N[C@H](CCCCNC(=O)CN2CCN(CC(=O)O)CCN(CC(=O)O)CCN(CC(=O)O)CC2)C(N)=O)NC(=O)[C@H](CC(=O)O)NC(=O)[C@H](CCC(=O)O)NC(=O)[C@H](Cc2c[nH]c3ccccc23)NC(=O)[C@H](CC(N)=O)NC(=O)[C@H](CCC(=O)O)NC1=O` [compound 273, Ac-W-T-I-C(3)-Glu-N-W-Glu-D-C(3)-W-P-[D-Lys(DOTA)]-NH2] (Ac-WTICENWEDCWP[dK](DOTA)-NH2; disulfide 4-10), 1 to 10 nM.
Take `CC[C@H](C)[C@H](NC(=O)[C@@H](NC(=O)[C@H](Cc1c[nH]c2ccccc12)NC(C)=O)[C@@H](C)O)C(=O)N[C@H]1CSSC[C@@H](C(=O)N[C@@H](Cc2c[nH]c3ccccc23)C(=O)N2CCC[C@H]2C(=O)N[C@H](CCCCNC(=O)CN2CCN(CC(=O)O)CCN(CC(=O)O)CCN(CC(=O)O)CC2)C(N)=O)NC(=O)[C@H](CC(=O)O)NC(=O)[C@H](CCC(=O)O)NC(=O)[C@H](Cc2c[nH]c3ccccc23)NC(=O)[C@H](CC(N)=O)NC(=O)[C@H](CC(N)=O)NC1=O` [compound 274, Ac-W-T-I-C(3)-N-N-W-Glu-D-C(3)-W-P-[D-Lys(DOTA)]-NH2] (Ac-WTICNNWEDCWP[dK](DOTA)-NH2; disulfide 4-10): the Kd fell in the range of 1 to 10 nM.
For the compound `CC[C@H](C)[C@H](NC(=O)[C@@H](NC(=O)[C@H](Cc1c[nH]c2ccccc12)NC(C)=O)[C@@H](C)O)C(=O)N[C@H]1CSSC[C@@H](C(=O)N[C@@H](Cc2c[nH]c3ccccc23)C(=O)N2CCC[C@H]2C(=O)N[C@H](CCCCNC(=O)CN2CCN(CC(=O)O)CCN(CC(=O)O)CCN(CC(=O)O)CC2)C(N)=O)NC(=O)[C@H](CC(=O)O)NC(=O)[C@H](CCC(=O)O)NC(=O)[C@H](Cc2c[nH]c3ccccc23)NC(=O)[C@H](CCC(=O)O)NC(=O)[C@H](CCC(=O)O)NC1=O` [compound 275, Ac-W-T-I-C(3)-Glu-Glu-W-Glu-D-C(3)-W-P-[D-Lys(DOTA)]-NH2] (Ac-WTICEEWEDCWP[dK](DOTA)-NH2; disulfide 4-10), the Kd lay within 1 to 10 nM.
For `CC[C@H](C)[C@H](NC(=O)[C@@H](NC(=O)[C@H](Cc1c[nH]c2ccccc12)NC(C)=O)[C@@H](C)O)C(=O)N[C@H]1CSSC[C@@H](C(=O)N[C@@H](Cc2c[nH]c3ccccc23)C(=O)N2CCC[C@H]2C(=O)N[C@H](CCCCNC(=O)CN2CCN(CC(=O)O)CCN(CC(=O)O)CCN(CC(=O)O)CC2)C(N)=O)NC(=O)[C@H](CC(=O)O)NC(=O)[C@H](CCC(=O)O)NC(=O)[C@H](Cc2c[nH]c3ccccc23)NC(=O)[C@H](CCC(=O)O)NC(=O)[C@H](CC(N)=O)NC1=O` [compound 276, Ac-W-T-I-C(3)-N-Glu-W-Glu-D-C(3)-W-P-[D-Lys(DOTA)]-NH2] (Ac-WTICNEWEDCWP[dK](DOTA)-NH2; disulfide 4-10), the Kd lay in the range of 10 to 100 nM.
